Data published in patent publication US8563559B2 (Rigel Pharmaceuticals, Inc., priority 2006, dated 2013).

Target: T1, Axl (Homo sapiens, UniProt P30530)
T1 construct: endogenous in cells; host or cells: HeLa
T1 sequence (P30530 26-894): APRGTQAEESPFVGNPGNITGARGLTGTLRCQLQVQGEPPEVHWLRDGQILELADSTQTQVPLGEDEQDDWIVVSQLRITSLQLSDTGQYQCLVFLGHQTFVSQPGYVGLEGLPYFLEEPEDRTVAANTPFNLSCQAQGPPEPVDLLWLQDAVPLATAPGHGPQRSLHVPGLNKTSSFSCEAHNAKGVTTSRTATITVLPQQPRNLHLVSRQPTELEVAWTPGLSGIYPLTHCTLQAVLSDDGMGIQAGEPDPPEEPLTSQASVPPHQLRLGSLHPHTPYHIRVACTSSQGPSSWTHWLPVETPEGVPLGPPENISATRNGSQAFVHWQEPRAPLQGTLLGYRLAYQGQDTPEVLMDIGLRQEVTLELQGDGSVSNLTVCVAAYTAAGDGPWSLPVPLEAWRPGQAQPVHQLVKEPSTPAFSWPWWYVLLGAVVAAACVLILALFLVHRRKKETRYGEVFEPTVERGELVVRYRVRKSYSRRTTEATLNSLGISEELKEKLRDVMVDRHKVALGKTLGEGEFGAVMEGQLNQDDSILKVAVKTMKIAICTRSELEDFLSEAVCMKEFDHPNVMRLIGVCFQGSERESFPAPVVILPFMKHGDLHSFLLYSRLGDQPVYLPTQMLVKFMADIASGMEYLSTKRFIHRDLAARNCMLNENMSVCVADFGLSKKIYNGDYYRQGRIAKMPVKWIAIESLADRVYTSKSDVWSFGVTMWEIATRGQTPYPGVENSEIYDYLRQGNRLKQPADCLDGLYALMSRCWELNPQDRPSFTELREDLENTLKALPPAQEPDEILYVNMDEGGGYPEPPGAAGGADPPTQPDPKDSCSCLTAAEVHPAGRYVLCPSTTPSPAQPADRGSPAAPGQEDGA
Test: Phospho-AKT in-cell Western assay (inhibition of Axl activity)
Format: cell-based
Conditions: Table 1, formula (Ia); Hela cells, Axl antibody cross-linking stimulation, phospho-Akt chemiluminescence normalized to relative cell number
Method in brief: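 HeLa cells were starved 24 h in 0.5% FCS with Axl/Fc 500 ng/mL, pre-treated with compound for 1 h at 37 °C, then stimulated 5 min by anti-Axl antibody cross-linking. Fixed cells were probed for phospho-AKT with an HRP-linked in-cell Western and read by chemiluminescence.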

IC50 [µM] | Compound
< 1 | CC1(C)[C@H]2C[C@H](C(=O)NC3CC3)[C@](C)(Nc3nc(Nc4ccc(OCCN5CCCC5)cc4)ncc3Cl)[C@@H]1C2 [Compound 61, (1R,2R,3S,5R)-2-(5-chloro-2-(4-(2-(pyrrolidin-1-yl)ethoxy)phenylamino)pyrimidin-4-ylamino)-N-cyclopropyl-2,6,6-trimethylbicyclo[3.1.1]heptane-3-carboxamide]
< 1 | CCN(CC)C1CCN(c2ccc(Nc3ncc(Cl)c(N[C@@]4(C)[C@@H](C(=O)NC5CC5)C[C@H]5C[C@@H]4C5(C)C)n3)cc2F)CC1 [Compound 62, (1R,2R,3S,5R)-2-(5-chloro-2-(3-fluoro-4-(4-(diethylamino)piperidin-1-yl)phenylamino)pyrimidin-4-ylamino)-N-cyclopropyl-2,6,6-trimethylbicyclo[3.1.1]heptane-3-carboxamide]
< 1 | CC(C)NC(=O)[C@H]1C[C@H]2C[C@H](C2(C)C)[C@@]1(C)Nc1nc(Nc2ccc(OCCN3CCCC3)cc2)ncc1Cl [Compound 63, (1R,2R,3S,5R)-2-(5-chloro-2-(4-(2-(pyrrolidin-1-yl)ethoxy)phenylamino)pyrimidin-4-ylamino)-N-(1-methylethyl)-2,6,6-trimethylbicyclo[3.1.1]heptane-3-carboxamide]

The next lines start with the compound.

Compound | IC50 [µM]
CCN(CC)C1CCN(c2ccc(Nc3ncc(C(F)(F)F)c(N[C@@]4(C)[C@@H](C(=O)NC)C[C@H]5C[C@@H]4C5(C)C)n3)cc2F)CC1 [Compound 52, (1R,2R,3S,5R)-2-(5-trifluoromethyl-2-(3-fluoro-4-(4-(diethylamino)piperidin-1-yl)phenylamino)pyrimidin-4-ylamino)-N,2,6,6-tetramethylbicyclo[3.1.1]heptane-3-carboxamide] | < 1
CNC(=O)[C@H]1C[C@H]2C[C@H](C2(C)C)[C@@]1(C)Nc1nc(Nc2ccc(N3CCC(N4CCC(C)CC4)CC3)c(F)c2)ncc1Cl [Compound 54, (1R,2R,3S,5R)-2-(5-chloro-2-(3-fluoro-4-(4-(4-methylpiperidin-1-yl)piperidin-1-yl)phenylamino)pyrimidin-4-ylamino)-N,2,6,6-tetramethylbicyclo[3.1.1]heptane-3-carboxamide] | < 1
CNC(=O)[C@H]1C[C@H]2C[C@H](C2(C)C)[C@@]1(C)Nc1nc(Nc2ccc(N3CCC(N4CCC(C)CC4)CC3)c(F)c2)ncc1F [Compound 55, (1R,2R,3S,5R)-2-(5-fluoro-2-(3-fluoro-4-(4-(4-methylpiperidin-1-yl)piperidin-1-yl)phenylamino)pyrimidin-4-ylamino)-N,2,6,6-tetramethylbicyclo[3.1.1]heptane-3-carboxamide] | < 1

Same assay, conditions: Table 3, formula (Ic); Hela cells, Axl antibody cross-linking stimulation, phospho-Akt chemiluminescence normalized to relative cell number

IC50 [µM] | Compound
< 1 | CNC(=O)[C@H]1C[C@H]2C[C@H](C2(C)C)[C@@]1(C)Nc1nc(Nc2ccc3c(c2)OCCN3CCN2CCOCC2)ncc1Cl [Compound 58, (1R,2R,3S,5R)-2-(5-chloro-2-((3,4-dihydro-4-(2-(morpholin-4-yl)ethyl)-2H-benzo[b][1,4]oxazin-7-yl)amino)pyrimidin-4-ylamino)-N,2,6,6-tetramethylbicyclo[3.1.1]heptane-3-carboxamide]
1 to 10 | CNC(=O)[C@H]1C[C@H]2C[C@H](C2(C)C)[C@@]1(C)Nc1nc(Nc2ccc3c(c2)OCCN3CCN2CCOCC2)ncc1F [Compound 59, (1R,2R,3S,5R)-2-(5-fluoro-2-((3,4-dihydro-4-(2-(morpholin-4-yl)ethyl)-2H-benzo[b][1,4]oxazin-7-yl)amino)pyrimidin-4-ylamino)-N,2,6,6-tetramethylbicyclo[3.1.1]heptane-3-carboxamide]
< 1 | CN(C)CCN1CCOc2cc(Nc3ncc(Cl)c(N[C@@]4(C)[C@@H](C(=O)NCCO)C[C@H]5C[C@@H]4C5(C)C)n3)ccc21 [Compound 60, (1R,2R,3S,5R)-2-(5-chloro-2-((3,4-dihydro-4-(2-(dimethylamino)ethyl)-2H-benzo[b][1,4]oxazin-7-yl)amino)pyrimidin-4-ylamino)-N-(2-hydroxyethyl)-2,6,6-trimethylbicyclo[3.1.1]heptane-3-carboxamide]
< 1 | CC(C)NC(=O)[C@H]1C[C@H]2C[C@H](C2(C)C)[C@@]1(C)Nc1nc(Nc2ccc3c(c2)OCCN3CCN(C)C)ncc1Cl [Compound 64, (1R,2R,3S,5R)-2-(5-chloro-2-((3,4-dihydro-4-(2-(dimethylamino)ethyl)-2H-benzo[b][1,4]oxazin-7-yl)amino)pyrimidin-4-ylamino)-N-(1-methylethyl)-2,6,6-trimethylbicyclo[3.1.1]heptane-3-carboxamide]

More lines, now with the values behind:

Compound | IC50 [µM]
CNC(=O)[C@H]1C[C@H]2C[C@H](C2(C)C)[C@@]1(C)Nc1nc(Nc2ccc3c(c2)N(CCN(C)C)CCO3)ncc1F [Compound 51, (1R,2R,3S,5R)-2-(5-fluoro-2-((3,4-dihydro-4-(2-(dimethylamino)ethyl)-2H-benzo[b][1,4]oxazin-6-yl)amino)pyrimidin-4-ylamino)-N,2,6,6-tetramethylbicyclo[3.1.1]heptane-3-carboxamide] | 1 to 10
CCN(CC)CCN1CCOc2cc(Nc3ncc(C(F)(F)F)c(N[C@@]4(C)[C@@H](C(=O)NC)C[C@H]5C[C@@H]4C5(C)C)n3)ccc21 [Compound 53, (1R,2R,3S,5R)-2-(5-trifluoromethyl-2-((3,4-dihydro-4-(2-(diethylamino)ethyl)-2H-benzo[b][1,4]oxazin-7-yl)-amino)pyrimidin-4-ylamino)-N,2,6,6-tetramethylbicyclo[3.1.1]heptane-3-carboxamide] | < 1
CNC(=O)[C@H]1C[C@H]2C[C@H](C2(C)C)[C@@]1(C)Nc1nc(Nc2ccc3c(c2)OCCN3CCN2CCCCC2)ncc1Cl [Compound 56, (1R,2R,3S,5R)-2-(5-chloro-2-((3,4-dihydro-4-(2-(piperidin-1-yl)ethyl)-2H-benzo[b][1,4]oxazin-7-yl)amino)pyrimidin-4-ylamino)-N,2,6,6-tetramethylbicyclo[3.1.1]heptane-3-carboxamide] | < 1
CNC(=O)[C@H]1C[C@H]2C[C@H](C2(C)C)[C@@]1(C)Nc1nc(Nc2ccc3c(c2)OCCN3CCN2CCCCC2)ncc1F [Compound 57, (1R,2R,3S,5R)-2-(5-fluoro-2-((3,4-dihydro-4-(2-(piperidin-1-yl)ethyl)-2H-benzo[b][1,4]oxazin-7-yl)amino)pyrimidin-4-ylamino)-N,2,6,6-tetramethylbicyclo[3.1.1]heptane-3-carboxamide] | < 1
